For one series, the target named is T1, Xanthine oxidase (Bos taurus, UniProt P80457).
T1 construct: purchased Sigma x-1875; host or cells: buttermilk
Briefly: Xanthine oxidase assay (superoxide by hypoxanthine/xanthine oxidase, Lucigenin). In kind it is biochemical. The settings on record: hypoxanthine 150 μM, buttermilk xanthine oxidase, 37° C.; for IC50: read-out: Xanthine Oxidase Inhibition IC50 (Integral).

Series [1] relates to isolated neutrophils (opsonized zymosan-stimulated oxidative burst). Briefly: Measurement of chemiluminescence of isolated neutrophils (neutrophil burst, Lucigenin). The settings on record: Neutrophil; for IC50: 14 min, opsonized zymosan, lucigenin, 37° C. In kind it is cell-based. As for the experimental part: Whole blood (150 ml) was anticoagulated with Acid Citrate Dextrose (ACD) using a ratio of 1:5 ACD to blood.
All steps are to be performed using polypropylene plastic ware.
a. Whole blood (60 ml) was added to each of three 100 ml polypropylene graduated cylinders containing 30 ml of […]. The cylinders were covered securely with Parafilm. The blood was allowed to sediment for approximately 1 hour at room temperature.
b. The turbid straw-colored layer was harvested from the top of the cylinders into 50 ml conical polypropylene tubes. The white blood cells were pelleted by centrifugation at 240×g (Sorvall at 1200 rpm) for 12 min. at 4° C. with the brake on low.
c. The supernatant was removed by aspiration and the pooled pellet resuspended in 4-50 ml cold PBS (w/o Ca, Mg). It was then centrifuged at 240×g (Sorvall at 1200 rpm) for 6 min. at 4° C. with the brake on high.
a. The supernatant was aspirated and the pellet resuspended in 12 ml of cold cell culture-grade water. The pellet was titrated gently with a pipet for exactly 30 seconds then 4 ml of cold 0.6 M KCl was added. It was then QSed to 50 ml with cold PBS (w/o Ca, Mg) and centrifuged at 300×g (Sorvall TY 6000D at 1400 rpm) for 6 min. at 4° C. with the brake on high.
b. Step 2.a. was repeated once more.
a. The supernatant was aspirated and the cells were resuspended in 2.5 ml cold PBS (w/o Ca, Mg). The cell suspension was carefully layered over 3 ml Ficoll-Hypaque in a 15 ml polypropylene conical tube. It was then centrifuged at 400×g (Sorvall at 1900 rpm) for 30 min. at 4° C. with the brake on low.
b. Aspiration occurred down to the neutrophil pellet. The pellet was resuspended fin cold PBS (w/o Ca, Mg) and transferred to a 50 ml conical tube. It was then QSed to 50 ml with cold PBS (w/o Ca, Mg) and centrifuged at 300×g (Sorvall at 1400 rpm) for 6 min. at 4° C. with the brake on high.
d. The supernatant was aspirated and the pellet resuspended in 50 ml cold PBS (w/o Ca, Mg) and centrifuged at 300×g (Sorvall at 1400 rpm) for 6 min. with the brake on high.
e. The supernatant was aspirated and the neutrophil pellet resuspended in 4.0 ml cold PBS (w/o Ca, Mg). It was kept on ice. Trypan blue (10 μl) was diluted (1:40) and the cells were counted using a hemacytometer. The cell number and viability by Trypan […] exclusion were determined and the results recorded. The cells were diluted to 5.0×10^6 cells/ml with cold PBS-G (with Ca, Mg) prior to plating for the assay.
2. […] The suspension was centrifuged and the particles resuspended in 7 ml of PBS-G (with Ca, Mg)(18 mg/ml). It was stored on ice until used (briefly vortexed prior to pipetting).
4. PBS-G (10 μl) (with Ca, Mg) was added to the wells in a white 96 well plate.
6. The compound dilutions (10 μl) were added to the appropriate wells.
7. The cell prep was diluted to 5.0×10^6 cells/ml with PBS-G (with Ca, Mg) in a separate multipipette trough.
8. The neutrophil suspension (20 μl) was added to the appropriate wells.
9. The plate was incubated at 37° C. for three minutes.
10. Zymosan (10 μl of 18 mg/ml) was added to the appropriate wells.
11. The plate was read on the luminometer (Labsystems Luminoskan, Needham Heights, Mass.) for 14 min. at 37° C. on the kinetic mode and the results recorded using the software DeltaSoft.
12. The plate data was exported into Excel to determine percent of control and derive the means and standard deviations for the data. The IC50 was determined graphically from the data and plotted using SigmaPlot. For cases where one concentration (50 μM) was tested, percent inhibition was compared to that seen with 50 μM apocynin.
13. The results are set forth below in Table 1 as "Neutrophil Burst IC50 (Lucigenin)". The results for 50 μM inhibition in the single assay are reported as "Neutrophil Burst Screen Value (% @ 50 μM)".

The subject of series [2] is monocytes (TNF secretion). In words: Specificity: secretion of TNF by monocytes. In kind it is cell-based. The settings on record: 50 μM; LPS stimulated or unstimulated monocytes. As for the experimental part:
(§1) To assess specificity of action, the title compound (hereinafter "Azine") was tested for its ability to inhibit other functions of stimulated neutrophils and monocytes. The procedure followed was set forth in Mrowietz et al., British Journal of Dermatology, 127:382-386 (1992); Snyderman, Ralph, Methods for Studying Mononuclear Phagocytes, ed. Adams, Edelson, and Koren, New York, Academic Press, pp. 535-547 (1981); Sozzani et al., The Journal of Immunology, Oct. 1, 1991, pp. 2215-2221; Zigmond et al., The Journal of Experimental Medicine, 137:387 (1973); Wahl et al., Cell Immunol., 85:373 (1984); Wahl et al., Current Protocols in Immunology, ed. Coligan, Kruisbeek, Margulies, Shevach, and Strober, p. 7.6.1 (1991); Hogquist et al., J. Immunol, 147:2181 (1991). The Azine (50 μM) had no effect on chemotaxis of neutrophils activated by the chemotactic peptide f-Met-Leu-Phe.

Series [3] relates to monocytes (IL-1 secretion). In words: Specificity: secretion of IL-1 by monocytes. Particulars: 50 μM; LPS stimulated or unstimulated monocytes. In kind it is cell-based. As to the method: as §1
The test system of another series is Jurkat cells. Briefly: Cytotoxicity assay employing Jurkat cells (MTT). Particulars: Jurkat clone E6-1, MTT, 37° C. overnight. In kind it is cell-based. As for the experimental part:
This Assay was performed as set forth in Hansen et al., Journal of Immunological Methods, 119:203-210 (19930; Mosmann, Journal of Immunological Methods, 65:55-63 (1983); and Slater et al., Biochem. Ciophys. Acta, 77:383 (1963); except as noted below.
Compounds from the following Examples were tested for cytotoxicity using MTT (i.e., 3-[4,5-Dimethylthiazol-2-yl]-2,5-diphenyltetrazolium bromide; Thiazolyl Blue (Sigma, St. Louis, Mo.)).
MTT was dissolved in basal culture media at a concentration of 5 mg/ml. If necessary, it was briefly warmed at 37° C. to fully dissolve, passed through a sterile filter, and aliquoted and stored at -20° C. until use.
The Extraction Buffer used was a solution composed of 20% SDS, 2.5% Acetic Acid (80% 6 stock solution), 2.5% 1N Hcl, 50% Dimethylformamide/50% dissolved in distilled water, SDS was dissolved into buffer components with gentle heating and stirring and the resultant solution was filtered and stored until use.
The MTT solution was added in an amount equal to 10% of the culture volume to each well in a 96-well plate containing 100,000 Jurkat cells/well.
The wells were then incubated for 0.5 to 2 hours in standard culture conditions. A volume of extraction buffer equal to the culture volume was added. The 96-well plate was then sealed. The formazan crystals were allowed to extract at 37° C. for four hours. The plate was read on a spectrophotometer [Spectramax 250, Molecular Devices, Sunnyvale, Calif.] at an absorbance wavelength of 560 nm. (The background absorbance measured at 650 nm was subtracted from the value measured at 560 nm.)
The Jurkat cells (Jurkat clone E6-1) were grown using standard conditions supplied by ATCC (American Type Culture Collection--Rockville, Md.).
The compounds diluted in medium (RPMI 1640 plus 10% fetal bovine serum) stock solution of 100 μM, then this stock solution was further diluted 3-fold before testing in the instant assay.
2-Hydroxy-3-methoxy-E-nitrostyrene tested at 100 μM as death control cells, incubated under the above conditions at 37° C. overnight.
The Extraction Buffer (100 μl) was added to each well and the resultant suspension was incubated 4 hours at 37° C.
The results from this procedure are set forth above in Table 1 in the column marked "Cytotox (MTT/Jurkat)". […] Toxicity was rated "3" if dead cells and >50% reduction in MTT absorbance at 1 μM test compound.

The subject of a further series is neutrophils. In words: Specificity: chemotaxis of neutrophils activated by f-Met-Leu-Phe. In kind it is cell-based. The settings on record: 50 μM. As for the experimental part: as §1

The results in this text go back to US5990137A, “Method of inhibiting NADPH oxidase” (Idun Pharmaceuticals, Inc., priority 1998, dated 1999).

T1 sequence (P80457 whole entry): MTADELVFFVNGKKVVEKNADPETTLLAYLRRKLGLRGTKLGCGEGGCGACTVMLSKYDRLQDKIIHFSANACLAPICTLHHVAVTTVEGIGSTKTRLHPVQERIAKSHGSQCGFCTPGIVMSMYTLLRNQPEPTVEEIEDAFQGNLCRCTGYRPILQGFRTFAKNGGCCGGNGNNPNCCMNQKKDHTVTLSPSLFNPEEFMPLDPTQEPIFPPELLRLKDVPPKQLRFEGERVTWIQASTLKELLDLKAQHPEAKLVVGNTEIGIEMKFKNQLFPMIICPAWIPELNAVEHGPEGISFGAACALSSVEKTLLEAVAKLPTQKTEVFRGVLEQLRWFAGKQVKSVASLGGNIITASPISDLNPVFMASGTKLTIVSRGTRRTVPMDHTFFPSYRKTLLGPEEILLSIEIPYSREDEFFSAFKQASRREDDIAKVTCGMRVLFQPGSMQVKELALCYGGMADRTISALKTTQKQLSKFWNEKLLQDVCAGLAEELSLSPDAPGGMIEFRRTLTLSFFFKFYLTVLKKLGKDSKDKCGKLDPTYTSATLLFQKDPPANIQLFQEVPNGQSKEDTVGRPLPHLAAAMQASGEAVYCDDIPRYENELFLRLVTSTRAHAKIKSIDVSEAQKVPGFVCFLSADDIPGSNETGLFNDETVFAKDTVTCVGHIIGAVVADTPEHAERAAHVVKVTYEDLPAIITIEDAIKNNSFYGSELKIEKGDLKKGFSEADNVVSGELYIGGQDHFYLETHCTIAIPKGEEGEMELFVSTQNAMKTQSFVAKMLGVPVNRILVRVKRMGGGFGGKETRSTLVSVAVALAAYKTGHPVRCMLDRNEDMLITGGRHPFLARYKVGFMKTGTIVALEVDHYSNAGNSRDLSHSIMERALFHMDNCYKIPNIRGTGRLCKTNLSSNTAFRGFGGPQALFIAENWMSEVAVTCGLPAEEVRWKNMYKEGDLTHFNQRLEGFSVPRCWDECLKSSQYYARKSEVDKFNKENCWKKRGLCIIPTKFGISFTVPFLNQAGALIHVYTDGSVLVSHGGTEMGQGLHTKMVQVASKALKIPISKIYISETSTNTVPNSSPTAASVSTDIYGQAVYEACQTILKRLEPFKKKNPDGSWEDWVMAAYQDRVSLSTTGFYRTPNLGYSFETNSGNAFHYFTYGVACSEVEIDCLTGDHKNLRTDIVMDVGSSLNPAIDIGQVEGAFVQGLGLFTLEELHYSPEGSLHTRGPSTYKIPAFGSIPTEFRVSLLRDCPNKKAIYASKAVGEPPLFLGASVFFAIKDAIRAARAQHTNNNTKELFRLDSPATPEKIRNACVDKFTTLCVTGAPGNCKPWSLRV

Take `COc1cc(/C=N/N=C/c2ccc(O)c(OC)c2)ccc1O` [C, Bis[4-hydroxy-3-methoxybenzaldehyde]-trans,trans-azine]: the “Xanthine Oxidase Inhibition IC50 (Integral)” value on Xanthine oxidase is on record as “No Effect”. In addition, in series [1], the IC50 (usually the midpoint of a concentration-inhibition curve) is 4.9 µM. In addition, the inhibition at 50 µM in series [1] (percent inhibition at 50 μM, single concentration, read-out: Neutrophil Burst Screen Value (% @ 50 μM)) stood at 85.6%. Besides, the “inhibition of secretion of TNF” value in series [2] is “did not inhibit”. The “inhibition of secretion of IL-1” value in series [3] is recorded as “did not inhibit”. In addition, the “Cytotox (MTT/Jurkat)” value with Jurkat cells came out at 0. The “effect on chemotaxis of neutrophils” value with neutrophils was “no effect”.
In the case of `COc1cc(/C(C)=N/N=C(\C)c2ccc(O)c(OC)c2)ccc1O` [Example 7, Bis[4-Hydroxy-3-Methoxyacetophenone]trans,trans-Azine], the “Xanthine Oxidase Inhibition IC50 (Integral)” value on Xanthine oxidase was “No Effect”. The compound also had a concentration for half-maximal inhibition (IC50) in series [1] of 33.1 µM. The “Cytotox (MTT/Jurkat)” value with Jurkat cells was 1 (dead cells and >50% reduction in MTT absorbance were observed at 100 μM of the test compound).
Turning to `COc1cc(/C=N/N=C/c2ccc(O)cc2)ccc1O` [Example 10, N-[4-Hydroxy-3-Methoxybenzaldehyde]-N'-[4-Hydroxybenzaldehyde]trans,trans-Azine], the “Xanthine Oxidase Inhibition IC50 (Integral)” value on Xanthine oxidase is reported as “No Effect”. The same compound registered an IC50 in series [1] of 8.5 µM. Besides, the “Cytotox (MTT/Jurkat)” value in the series on Jurkat cells is 0.
Consider `Oc1ccc(/C=N/N=C/c2ccc(O)c(O)c2)cc1O` [Example 12, Bis[3,4 - Dihydroxybenzaldehyde]trans,trans-Azine], for which the IC50 at Xanthine oxidase was 1.1 µM; in series [1] it was 7.3 µM. Also, in the series with Jurkat cells, the “Cytotox (MTT/Jurkat)” value is 1 (dead cells and >50% reduction in MTT absorbance were observed at 100 μM of the test compound).
For `COc1cc(/C=N/N=C/c2ccccc2)ccc1O` [Example 13, N-[4-Hydroxy-3-Methoxybenzaldehyde]-N'-[Benzaldehyde]trans,trans-Azine], the “Xanthine Oxidase Inhibition IC50 (Integral)” value at Xanthine oxidase was “No Effect”. Further, it took 44 µM to reach half-maximal inhibition in series [1] (IC50). Besides, in the series with Jurkat cells, the “Cytotox (MTT/Jurkat)” value is 0.
For `COc1ccc(N=Cc2ccc(O)c(OC)c2)cc1` [Example 17, N-(3-Methoxy-4-Hydroxybenzylidene)-p-Methoxyaniline] the same measures were “No Effect”, 3.1 µM and 0.
With `COc1ccc(N=Cc2cc(OC)c(O)c(OC)c2)cc1` [Example 18, N-(3,5-Dimethoxy-4-Hydroxybenzylidene)-p-Methoxyaniline], the values for the IC50 (on Xanthine oxidase; in series [1]) were 32 µM and 5 µM, respectively. The “Cytotox (MTT/Jurkat)” value in the series on Jurkat cells is on record as 0.
